Results on two molecules are retold here after patent publication US20100184134A1, “DUAL CHARGING SYSTEM FOR SELECTIVELY INTRODUCING NON-NATIVE AMINO ACIDS INTO PROTEINS USING AN IN VITRO SYNTHESIS METHOD” (priority 2009, published 2010).

In general, IC50 refers to the concentration that inhibits the measured activity by half.

One test addresses GluRS (Escherichia coli, UniProt P04805). Particulars: read-out: IC50 for inhibition of the rate of cell-free synthesis of turboGFP; cell-free reaction at 30° C., fluorescence monitored for 5 h, maximal rate of fluorescence change. The source says:
(§1) Cell-free extracts or lysates were generated to maximize ribosome yield using rapid growth of high cell density fermentations of E. coli strain KGK10 (Knapp, Goerke et al. (2007) Biotechnol Bioeng, 97, 901-8), essentially as described by Liu et al.(Liu, Zawada et al. (2005) Biotechnol Prog, 21, 460-5) DL-dithiothreitol was not added to the cell lysate following homogenization. A modified “run-off procedure” was used to prepare the cell-free extract. Fermentation volume to generate sufficient cell-free extract was typically 2.5× the desired cell-free reaction volume. To inactivate the reducing activity of the cell extract, iodoacetamide (IAM) at various concentrations was added as previously described (Yang, Kanter et al. (2004) Biotechnol Prog, 20, 1689-96). Gene expression was under the control of the T7 promoter. In order to facilitate translation initiation, genes were synthesized (DNA 2.0, Menlo Park, Calif.) with synonymous codons at the 5′ end of the gene with ATG start codon (N-terminal methionine residue) optimized for mRNA instability as measured by mRNA ΔGfold in the −6 to +37 positions (Kudla, Murray et al. (2009) Science, 324, 255-258) and rare codons were replaced. […]

For another test, the target named is T1, PheRS (Escherichia coli, UniProt P08312).
T1 construct: endogenous in cells; host or cells: cell-free extract (lysate) of E. coli strain KGK10
In words: Inhibition of the rate of cell-free synthesis of turboGFP by Phe-SA. The test is classed as biochemical, E. coli.
Excerpt: as §1

Test [1] has as its target T2, endogenous activity of PheRS (Escherichia coli, UniProt P08312).
T2 construct: endogenous in cells; host or cells: cell-free extract (lysate) of E. coli strain KGK10
Put plainly: Cell-free synthesis of turboGFP Y50TAG with added uncharged tRNAs in the presence of Phe-SA. The test is classed as biochemical, E. coli. Particulars: 12 nM Phe-SA; uncharged tRNACUA^Phe and tRNAGAA^Phe added. As for the experimental part: A control reaction containing turboGFP Y50TAG plasmid only yields no fluorescence, consistent with the ca. 6 kD truncated product (cf FIG. 22). The incorporation of para-acetyl phenylalanine at position 50 using the UAG-specific E. coli phenylalanine tRNACUA^Phe and tRNAGAA^Phe was measured in the presence 12 nM Phe-SA inhibitor, to inhibit the endogenous activity of PheRS (cf. FIG. 19c). […] In contrast, addition of various concentrations of both charged pAF-tRNACUA^Phe and Phe-tRNAGAA^Phe results in 13-20% of the wild-type fluorescence after 5 h, consistent with significant protein synthesis with incorporation of pAF at position 50.

T1 sequence (P07395 whole entry): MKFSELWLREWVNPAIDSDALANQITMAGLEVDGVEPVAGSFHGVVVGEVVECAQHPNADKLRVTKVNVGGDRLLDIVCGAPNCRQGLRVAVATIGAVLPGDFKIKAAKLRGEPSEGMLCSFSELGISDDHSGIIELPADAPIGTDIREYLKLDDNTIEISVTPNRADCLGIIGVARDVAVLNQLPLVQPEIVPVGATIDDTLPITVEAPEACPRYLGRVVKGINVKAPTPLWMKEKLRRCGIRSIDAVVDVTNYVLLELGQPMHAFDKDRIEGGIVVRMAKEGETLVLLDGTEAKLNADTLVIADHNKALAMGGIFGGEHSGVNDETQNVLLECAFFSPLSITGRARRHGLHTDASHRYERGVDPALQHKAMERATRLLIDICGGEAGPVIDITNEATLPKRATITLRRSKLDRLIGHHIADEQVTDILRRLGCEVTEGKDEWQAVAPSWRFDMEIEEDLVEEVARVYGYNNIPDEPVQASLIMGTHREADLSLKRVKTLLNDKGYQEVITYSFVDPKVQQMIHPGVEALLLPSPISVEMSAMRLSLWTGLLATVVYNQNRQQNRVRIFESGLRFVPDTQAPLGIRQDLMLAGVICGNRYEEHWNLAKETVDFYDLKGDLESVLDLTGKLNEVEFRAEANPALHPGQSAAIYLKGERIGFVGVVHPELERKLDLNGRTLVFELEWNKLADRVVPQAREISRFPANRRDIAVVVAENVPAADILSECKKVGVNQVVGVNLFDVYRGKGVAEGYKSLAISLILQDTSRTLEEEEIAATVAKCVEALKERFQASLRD
T1 sequence (P08312 whole entry): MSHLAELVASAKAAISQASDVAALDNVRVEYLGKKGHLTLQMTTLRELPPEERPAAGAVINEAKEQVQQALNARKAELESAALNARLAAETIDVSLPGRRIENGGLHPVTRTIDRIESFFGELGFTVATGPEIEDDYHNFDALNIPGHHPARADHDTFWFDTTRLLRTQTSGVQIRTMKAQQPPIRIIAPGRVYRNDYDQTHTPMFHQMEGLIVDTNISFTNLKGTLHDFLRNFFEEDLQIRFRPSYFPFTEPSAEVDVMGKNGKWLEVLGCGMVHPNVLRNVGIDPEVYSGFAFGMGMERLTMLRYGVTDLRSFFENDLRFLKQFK
T2 sequence (P08312 whole entry): as above
T2 sequence (P07395 whole entry, further chain): as the sequence (P07395 whole entry) above
GluRS, sequence (P04805 whole entry): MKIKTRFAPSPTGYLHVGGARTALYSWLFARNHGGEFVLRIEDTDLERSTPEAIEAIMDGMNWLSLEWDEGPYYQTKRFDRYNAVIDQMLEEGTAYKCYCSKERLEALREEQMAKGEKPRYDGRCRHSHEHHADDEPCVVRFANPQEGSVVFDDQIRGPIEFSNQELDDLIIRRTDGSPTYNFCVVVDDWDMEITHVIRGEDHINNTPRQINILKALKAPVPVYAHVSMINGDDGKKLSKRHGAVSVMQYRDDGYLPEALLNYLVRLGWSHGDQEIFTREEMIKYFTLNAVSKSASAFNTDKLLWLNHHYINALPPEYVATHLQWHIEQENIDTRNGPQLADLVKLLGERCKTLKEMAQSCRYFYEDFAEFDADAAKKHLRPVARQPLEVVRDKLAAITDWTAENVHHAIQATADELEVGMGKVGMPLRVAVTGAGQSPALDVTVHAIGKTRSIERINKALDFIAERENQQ

In the case of `Nc1ncnc2c1ncn2[C@@H]1O[C@H](COS(=O)(=O)NC(=O)[C@@H](N)CCC(=O)O)[C@@H](O)[C@H]1O` [Glu-SA], the half-maximal inhibitory concentration (IC50) at GluRS was 54 nM.

For `Nc1ncnc2c1ncn2[C@@H]1O[C@H](COS(=O)(=O)NC(=O)[C@@H](N)Cc2ccccc2)[C@@H](O)[C@H]1O` [Phe-SA, 5′-O-[N-(Phenylalanyl)sulfamoyl] adenosine], the midpoint of inhibition on PheRS, the IC50, lay at 0.8 nM. The “turboGFP fluorescence activity (percent relative activity)” value at PheRS (1 nM Phe-SA inhibitor) was approximately 50%. Also, the “inhibition of PheRS (no protein synthesized with uncharged tRNAs)” value in test [1] is reported as “completely inhibited”.
